Reference: US8895744B2, “Alfa-carboline inhibitors of NPM-ALK, RET, and Bcr-Abl” (Universita' Degli Studi di Milano-Bicocca, priority 2008, dated 2014)
Where two headings read alike, the source gives them in different places.

How the values were obtained:
[1] = system: parent untransformed BaF3 cells; assay: Tritiated thymidine uptake cell proliferation assay, parental BaF3 (control); assay type: cell-based; details: Mus musculus, 3[H]-thymidine uptake, 72 h, medium with IL-3, read-out: BaF parental IC50
Procedure, shortened: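 Control lines were parental BaF3 in IL-3-supplemented medium and ALK-, Abl- or RET-negative U937, seeded at 10 000 cells/well with serial inhibitor dilutions for 72 h at 37 °C. ³H-thymidine (1 μCi/well) was added for the final 16 h; IC50 (μM) is the concentration halving uptake versus DMSO.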

[2] = biological target: T1, BaF3 cells transformed with the oncogenic fusion protein NPM/ALK (Homo sapiens, UniProt Q9UM73); assay: Tritiated thymidine uptake cell proliferation assay, BaF3 NPM/ALK; assay type: cell-based; details: 3[H]-thymidine uptake, 72 h; read-out: BaF NPM/ALK IC50
T1 construct: fused on or other part: P06748 (Nucleophosmin)
Procedure, shortened: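 Cells were seeded at 10 000/well with serial inhibitor dilutions or DMSO vehicle and incubated 72 h at 37 °C, with ^3[H]-thymidine (1 μCi/well) added for the final 16 h. Incorporation was read by β scintillation counting. IC50 (μM) is the concentration giving a 50% decrease in uptake versus controls.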

[3] = biological target: BaF3 cells transformed with the oncogenic fusion protein bcr-abl (Homo sapiens, UniProt P00519); assay: Tritiated thymidine uptake cell proliferation assay, BaF3 BCR/ABL; assay type: cell-based; details: 3[H]-thymidine uptake, 72 h; read-out: BaF BCR/ABL IC50
Description: Inhibition of the Proliferation of Bcr/Abl Positive Cells
(§1) Method: Tritiated Thymidine Uptake Cell Proliferation Assay
(§2) The following procedure was used with parent untransformed BaF3 cells, BaF3 cells transformed with the oncogenic fusion protein bcr-abl, Abl-negative U937 cells, or Bcr-abl positive LAMA-84 cells. The parent untransformed BaF3 cells and Abl-negative U937 cells are used as controls. Cells were seeded in U-bottomed 96-well plates at 10 000 cells/well in a volume of 100 μL in supplemented medium. In the case of the parent untransformed BaF3 cells, the medium was supplemented with IL-3. Serial dilutions of inhibitors were added to the appropriate wells and volumes adjusted to 200 μL. Controls were treated with the equivalent volume of vehicle, DMSO, alone. Plates were incubated at 37° C. for 72 h. ^3[H]-thymidine (1 μCi/well) was added for the last 16 h of incubation. Cells were harvested on to paper filters and ^3[H]-thymidine incorporation was measured using a β scintillation counter (1430 MicroBeta, Wallac, Turku, Finland). The 50% inhibitory concentration (IC50) was defined as the concentration of inhibitor, expressed in micromolar, that gave a 50% decrease in ^3H-thymidine uptake compared with controls.

Recombinant ALK kinase = biological target: T2, Recombinant ALK kinase (Homo sapiens, UniProt Q9UM73); assay: ALK kinase inhibitory activity, ELISA-based in vitro kinase assay; assay type: biochemical; details: for ALK IC50, 2nd / subsequent determination: 2nd or 'then'
T2 construct: made in house; host or cells: Sf9 insect cells (baculovirus)
Procedure, shortened: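 Sf9-expressed, purified recombinant ALK phosphorylated a plate-coated peptide substrate with 0.3 mM ATP, Mn2+/Mg2+, pH 7.5, 15 min at 30° C, after 10 min inhibitor preincubation. Phosphotyrosine was detected by anti-pTyr ELISA (TMB, A450); IC50 in μM is the concentration giving 50% inhibition relative to control.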

[4] = system: NPM/ALK positive SUDHL-1 cells; assay: Tritiated thymidine uptake cell proliferation assay, SUDHL-1; assay type: cell-based; details: 3[H]-thymidine uptake, 72 h
Description: Inhibition of the proliferation of NPM/ALK positive cells
as §1
as §2, with “NPM/ALK, NPM/ALK positive SUDHL-1 cells, ALK-negative” for “bcr-abl, Abl-negative”, “NPM/ALK” for “or Bcr-abl”, “KARPAS-299” for “LAMA-84”, “Alk-negative” for “Abl-negative”, “^3[H]-thymidine” for “^3H-thymidine”

Recombinant Ret protein = biological target: T3, Recombinant Ret protein (Homo sapiens, UniProt P07949); assay: RET kinase inhibitory activity, ELISA-based in vitro kinase assay; assay type: biochemical; details: purified Ret, 0.3 mM ATP
T3 construct: made in house; host or cells: Sf9 cells (baculovirus)
Description: Recombinant ALK kinase was expressed in Sf9 insect cells using the pBlueBacHis2C baculovirus vector system and purified using an anion exchange Fast Flow Q-sepharose column (Amersham-Pharmacia Biotech) followed by HiTrap™-nickel affinity column (Amersham-Pharmacia Biotech). Purified ALK protein was used to screen inhibitors in the ELISA-based kinase assay. A Nunc Immuno 96 well plate was incubated overnight at 37° C. with coating solution (125 μL/well) containing ALK peptide substrate ([…]) (SEQ ID NO: 1) at various concentrations in PBS. Wells were then washed with 200 μL of wash buffer (PBS-Tween 0.05%) and left to dry for at least 2 h at 37° C. The kinase reaction was performed in the presence of 50 mM Tris pH 7.5, 5 mM MnCl2, 5 mM MgCl2, 0.3 mM ATP and purified rALK in a total volume of 100 μL/well at 30° C. for 15 min. For inhibitor testing the reaction mix was preincubated with the inhibitor or solvent control for 10 min at room temperature before transferring to the ELISA plate. After the reaction wells were washed 5 times with 200 μL of wash buffer. Phosphorylated peptide was detected using 100 μL/well of a mouse monoclonal anti-phosphotyrosine antibody (clone 4G10 Upstate Biotech Ltd) diluted 1:2000 in PBS+4% BSA. After 30 min incubation at room temperature the antibody was removed and wells were washed as described above. 100 μL of a secondary antibody (anti-mouse IgG, Horseradish Peroxidase linked whole antibody, Amersham Pharmacia Biotech) diluted 1:1000 in PBS+4% BSA was added to each well and the plate was incubated again for 30 min at room temperature before washing as above. The plate was developed using 100 μL/well TMB Substrate Solution (Endogen) and the reaction was stopped by adding an equiv.ual volume of H2SO4 0.36 M. Finally, the absorbance was read at 450 nm using an Ultrospec® 300 spectrophotometer (Amersham-Pharmacia Biotech). The concentration of the test solution showing 50% inhibition as compared with the control was expressed as IC50 (μM).
38. RET Kinase Inhibitory Activity
Method: ELISA-Based In Vitro Kinase Assay
Recombinant Ret protein was expressed in Sf9 cells using the pBlueBacHis2C baculovirus expression vector. Ret was purified using an anion exchange Fast Flow Q-sepharose column (Amersham-Pharmacia Biotech) followed by HiTrap™-nickel affinity column (Amersham-Pharmacia Biotech). Purified Ret was used in the ELISA-based kinase assay to screen inhibitors as described above. The kinase reaction was performed in the presence of 50 mM Tris pH 7.5, 1 mM MnCl2, 5 mM MgCl2, 0.3 mM ATP, peptide substrate ([…]) (SEQ ID NO: 1) and purified Ret. The concentration of the test solution showing 50% inhibition as compared with the control was expressed as IC50 (μM).

[5] = biological target: T4, Recombinant Abl T315I protein (Homo sapiens, UniProt P00519, T315I); assay: Abl T315I mutant kinase inhibitory activity, ELISA-based in vitro kinase assay; assay type: biochemical; details: purified Abl T315I, 0.3 mM ATP
T4 construct: made in house; host or cells: Sf9 cells (baculovirus)
Procedure, shortened: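 His-tagged human Abl T315I from Sf9 cells, preincubated 10 min at room temperature with inhibitor, then reacted on peptide-coated plates with 0.3 mM ATP, 1 mM MnCl2, 5 mM MgCl2 in 50 mM Tris pH 7.5. Phosphotyrosine detected by anti-pTyr/HRP ELISA at 450 nm; IC50 as 50% inhibition vs control.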

ALK-negative U937 cells = assay: Tritiated thymidine uptake cell proliferation assay, U937 (control); assay type: cell-based; details: Homo sapiens, U-937; 3[H]-thymidine uptake, 72 h
Description: as §1
The following procedure was used with parent untransformed BaF3 cells, BaF3 cells transformed with the oncogenic fusion protein NPM/ALK, NPM/ALK positive SUDHL-1 cells, ALK-negative U937 cells, NPM/ALK positive KARPAS-299 cells. The parent untransformed BaF3 cells and Alk-negative U937 cells are used as controls. Cells were seeded in U-bottomed 96-well plates at 10 000 cells/well in a volume of 100 μL in supplemented medium. In the case of the parent untransformed BaF3 cells, the medium was supplemented with IL-3. Serial dilutions of inhibitors were added to the appropriate wells and volumes adjusted to 200 μL. Controls were treated with the equivalent volume of vehicle, DMSO, alone. Plates were incubated at 37° C. for 72 h. ^3[H]-thymidine (1 μCi/well) was added for the last 16 h of incubation. Cells were harvested on to paper filters and ^3[H]-thymidine incorporation was measured using a β scintillation counter (1430 MicroBeta, Wallac, Turku, Finland). The 50% inhibitory concentration (IC50) was defined as the concentration of inhibitor, expressed in micromolar, that gave a 50% decrease in ^3[H]-thymidine uptake compared with controls. […]
as §2, with “RET-PTC2,” for “bcr-abl, Abl-negative U937 cells,”, “RET-negative 11937” for “Bcr-abl positive LAMA-84”, “RET-negative” for “Abl-negative”, “^3[H]-thymidine” for “^3H-thymidine”

[6] = purified rALK, 0.3 mM ATP, read-out: ALK IC50
[7] = repeated determinations, 1st, read-out: ALK IC50, 1st determination

T2 sequence (Q9UM73 19-1620): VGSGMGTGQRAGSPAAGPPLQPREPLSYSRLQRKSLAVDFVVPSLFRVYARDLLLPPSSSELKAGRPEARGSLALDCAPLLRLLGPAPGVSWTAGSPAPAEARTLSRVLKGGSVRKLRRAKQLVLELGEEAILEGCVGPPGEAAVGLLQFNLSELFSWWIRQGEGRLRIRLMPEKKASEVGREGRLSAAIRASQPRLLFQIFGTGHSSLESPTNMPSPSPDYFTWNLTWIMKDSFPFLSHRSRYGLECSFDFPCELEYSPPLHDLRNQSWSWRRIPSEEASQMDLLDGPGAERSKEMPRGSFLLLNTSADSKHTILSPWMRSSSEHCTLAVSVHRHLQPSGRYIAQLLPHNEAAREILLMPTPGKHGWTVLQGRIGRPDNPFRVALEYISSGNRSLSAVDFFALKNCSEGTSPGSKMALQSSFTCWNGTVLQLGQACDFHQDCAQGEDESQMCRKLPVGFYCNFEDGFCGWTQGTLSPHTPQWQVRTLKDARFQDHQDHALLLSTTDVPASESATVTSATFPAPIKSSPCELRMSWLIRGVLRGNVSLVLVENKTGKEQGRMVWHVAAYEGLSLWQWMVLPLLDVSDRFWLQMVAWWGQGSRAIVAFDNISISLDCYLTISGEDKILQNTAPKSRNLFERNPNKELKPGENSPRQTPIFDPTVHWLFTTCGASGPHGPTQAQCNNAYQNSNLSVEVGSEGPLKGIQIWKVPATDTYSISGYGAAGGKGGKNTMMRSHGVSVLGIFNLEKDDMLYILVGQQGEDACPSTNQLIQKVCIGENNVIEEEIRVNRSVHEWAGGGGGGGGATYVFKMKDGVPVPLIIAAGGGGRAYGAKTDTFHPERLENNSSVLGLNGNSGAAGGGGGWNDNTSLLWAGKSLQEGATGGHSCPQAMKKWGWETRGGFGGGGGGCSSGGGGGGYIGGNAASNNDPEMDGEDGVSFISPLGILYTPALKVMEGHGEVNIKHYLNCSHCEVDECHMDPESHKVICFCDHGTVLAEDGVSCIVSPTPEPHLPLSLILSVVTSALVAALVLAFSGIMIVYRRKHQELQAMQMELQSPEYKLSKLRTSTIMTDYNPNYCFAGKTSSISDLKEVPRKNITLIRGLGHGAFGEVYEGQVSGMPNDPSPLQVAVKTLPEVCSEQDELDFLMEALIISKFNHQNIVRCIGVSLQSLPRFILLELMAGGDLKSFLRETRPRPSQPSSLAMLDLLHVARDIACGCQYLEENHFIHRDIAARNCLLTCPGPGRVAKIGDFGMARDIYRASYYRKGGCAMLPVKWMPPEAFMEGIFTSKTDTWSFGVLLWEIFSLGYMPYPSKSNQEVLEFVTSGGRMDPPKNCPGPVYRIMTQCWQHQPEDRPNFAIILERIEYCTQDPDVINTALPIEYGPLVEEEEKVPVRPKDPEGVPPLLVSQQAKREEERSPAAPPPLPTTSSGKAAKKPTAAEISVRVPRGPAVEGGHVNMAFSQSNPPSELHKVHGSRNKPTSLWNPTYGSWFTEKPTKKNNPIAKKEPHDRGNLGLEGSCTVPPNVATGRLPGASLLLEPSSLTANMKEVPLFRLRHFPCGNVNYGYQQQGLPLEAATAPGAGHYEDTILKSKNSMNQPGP
T3 sequence (P07949 29-1114): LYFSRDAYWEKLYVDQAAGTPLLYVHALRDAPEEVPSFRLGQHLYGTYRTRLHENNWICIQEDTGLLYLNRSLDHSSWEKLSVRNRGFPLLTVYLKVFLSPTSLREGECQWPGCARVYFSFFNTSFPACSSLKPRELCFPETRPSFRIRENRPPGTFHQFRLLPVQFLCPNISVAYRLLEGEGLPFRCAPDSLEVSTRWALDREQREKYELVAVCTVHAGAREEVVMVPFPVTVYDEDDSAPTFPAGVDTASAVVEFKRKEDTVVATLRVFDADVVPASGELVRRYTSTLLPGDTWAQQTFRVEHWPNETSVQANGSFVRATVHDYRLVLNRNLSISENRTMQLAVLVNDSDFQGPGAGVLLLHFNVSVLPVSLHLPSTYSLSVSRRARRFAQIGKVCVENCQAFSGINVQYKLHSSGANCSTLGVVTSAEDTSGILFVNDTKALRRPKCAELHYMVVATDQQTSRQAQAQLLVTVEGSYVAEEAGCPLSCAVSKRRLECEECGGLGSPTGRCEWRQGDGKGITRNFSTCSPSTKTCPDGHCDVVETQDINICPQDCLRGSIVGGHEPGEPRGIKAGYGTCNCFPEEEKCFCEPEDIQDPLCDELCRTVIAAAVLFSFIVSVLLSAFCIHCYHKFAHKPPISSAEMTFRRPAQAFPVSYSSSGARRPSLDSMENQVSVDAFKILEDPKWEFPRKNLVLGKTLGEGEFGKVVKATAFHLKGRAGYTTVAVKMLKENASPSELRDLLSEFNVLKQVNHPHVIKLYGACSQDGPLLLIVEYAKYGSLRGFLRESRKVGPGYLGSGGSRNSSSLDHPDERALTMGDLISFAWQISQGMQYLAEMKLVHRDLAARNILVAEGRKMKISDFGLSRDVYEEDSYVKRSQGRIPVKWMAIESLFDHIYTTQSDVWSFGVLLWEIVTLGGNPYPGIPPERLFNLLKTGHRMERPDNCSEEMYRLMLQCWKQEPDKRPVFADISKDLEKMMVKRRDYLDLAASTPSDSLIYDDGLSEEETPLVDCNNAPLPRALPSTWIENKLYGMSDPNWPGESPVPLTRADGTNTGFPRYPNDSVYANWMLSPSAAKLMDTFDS
T1 sequence (Q9UM73 whole entry, change not shown, the tested form may be a part): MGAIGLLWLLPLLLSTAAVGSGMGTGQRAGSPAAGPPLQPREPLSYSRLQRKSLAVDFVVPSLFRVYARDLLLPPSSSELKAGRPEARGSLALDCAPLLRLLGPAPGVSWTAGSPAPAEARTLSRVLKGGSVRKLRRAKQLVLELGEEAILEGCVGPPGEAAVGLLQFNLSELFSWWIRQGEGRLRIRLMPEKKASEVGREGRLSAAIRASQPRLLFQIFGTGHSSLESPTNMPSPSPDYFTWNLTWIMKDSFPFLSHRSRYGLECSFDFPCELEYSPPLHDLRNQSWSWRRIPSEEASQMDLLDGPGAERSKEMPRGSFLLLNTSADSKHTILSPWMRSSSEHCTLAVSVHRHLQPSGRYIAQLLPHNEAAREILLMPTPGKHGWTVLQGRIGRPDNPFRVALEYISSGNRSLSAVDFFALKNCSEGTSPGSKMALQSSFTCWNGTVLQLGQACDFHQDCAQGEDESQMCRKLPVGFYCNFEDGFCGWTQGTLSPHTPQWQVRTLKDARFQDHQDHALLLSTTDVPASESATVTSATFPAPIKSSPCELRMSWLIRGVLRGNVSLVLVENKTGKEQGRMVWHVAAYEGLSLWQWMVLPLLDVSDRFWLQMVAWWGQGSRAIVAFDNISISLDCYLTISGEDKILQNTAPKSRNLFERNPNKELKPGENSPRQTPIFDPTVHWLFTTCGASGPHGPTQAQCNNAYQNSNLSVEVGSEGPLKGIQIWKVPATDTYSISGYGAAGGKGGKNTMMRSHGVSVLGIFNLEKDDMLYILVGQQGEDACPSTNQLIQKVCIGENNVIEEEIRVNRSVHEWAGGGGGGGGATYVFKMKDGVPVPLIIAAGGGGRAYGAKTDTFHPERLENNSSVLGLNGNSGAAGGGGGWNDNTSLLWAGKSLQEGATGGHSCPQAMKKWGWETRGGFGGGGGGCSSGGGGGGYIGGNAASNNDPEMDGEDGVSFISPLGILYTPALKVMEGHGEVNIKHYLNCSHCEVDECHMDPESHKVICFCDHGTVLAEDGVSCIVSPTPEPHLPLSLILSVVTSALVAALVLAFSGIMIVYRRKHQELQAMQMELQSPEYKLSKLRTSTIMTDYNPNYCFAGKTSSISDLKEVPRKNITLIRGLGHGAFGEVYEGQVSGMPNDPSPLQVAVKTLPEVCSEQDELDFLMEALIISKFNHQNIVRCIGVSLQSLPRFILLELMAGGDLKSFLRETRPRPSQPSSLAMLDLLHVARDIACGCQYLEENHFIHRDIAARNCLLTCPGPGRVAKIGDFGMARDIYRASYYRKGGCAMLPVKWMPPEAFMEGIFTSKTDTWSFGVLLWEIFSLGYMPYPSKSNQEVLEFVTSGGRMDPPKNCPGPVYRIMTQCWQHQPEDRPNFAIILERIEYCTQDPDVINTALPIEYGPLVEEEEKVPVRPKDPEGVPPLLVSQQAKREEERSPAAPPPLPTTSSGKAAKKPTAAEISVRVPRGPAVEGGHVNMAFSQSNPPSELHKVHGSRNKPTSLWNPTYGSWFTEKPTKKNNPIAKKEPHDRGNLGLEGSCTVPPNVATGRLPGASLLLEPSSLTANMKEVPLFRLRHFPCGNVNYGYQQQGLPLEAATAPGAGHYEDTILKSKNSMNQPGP

Row | Structure (SMILES) | IC50 [1] [µM] | GI50 [2] [µM] | GI50 [3] [µM] | IC50 (Recombinant ALK kinase; [6]) [µM] | IC50 [4] [µM] | IC50 (Recombinant Ret protein) [µM] | IC50 [5] [µM] | IC50 (ALK-negative U937 cells) [µM] | IC50 (Recombinant ALK kinase; [7]) [µM] | ALK IC50, 2nd / subsequent determination (Recombinant ALK kinase; repeated determinations)
1 | CC(=O)c1ccc2[nH]c3ncc(Cl)cc3c2c1 [R253, 6-acetyl-3-chloro-9H-pyrido[2,3-b]indole] | > 20 | > 20 | > 20 |  |  |  |  |  |  | 
2 | CN(C)CCSCC(=O)c1ccc2[nH]c3ncccc3c2c1 [R263] | > 25 | > 25 | > 25 | > 100 | 13 | > 100 | > 100 |  |  | 
3 | O=C(CSc1ccccn1)c1ccc2[nH]c3ncccc3c2c1 [R264] | 19 | 13 | 23 | 13 ± 0.58 | 24 | 24 ± 6.1 | 49 ± 1.1 |  |  | 
4 | O=C(NCCc1ccc2[nH]c3ncc(Cl)cc3c2c1)c1ccccc1 [R265, N-(2-(3-chloro-9H-pyrido[2,3-b]indol-6-yl)ethyl)benzamide] | > 25 | > 25 | > 25 | 40 ± 1.9 | > 25 | 26 ± 4.7 | 54 ± 43 |  |  | 
5 | O=[N+]([O-])/C=C/c1ccc2[nH]c3ncc(Cl)cc3c2c1 [R266, 3-chloro-6-(2′-nitrovinyl)-9H-pyrido[2,3-b]indole] | 3.4 | 3.4 | 2 | 3.3 ± 0.4 | 0.81 | 4.6 ± 0.39 | 9.8 ± 0.67 |  |  | 
6 | COc1ccc(-c2ccc3[nH]c4ncccc4c3c2)cc1 [R268] | > 25 | > 25 | > 25 |  | 0.6 | 3.3 ± 1.5 | 3.6 ± 0.19 |  |  | 
7 | COc1ccc(-c2ccc3[nH]c4ncc(/C=C/c5ccccc5)cc4c3c2)cc1 [R315, 6-(4-methoxyphenyl)-3-(2′-phenylethenyl)-9H-pyrido[2,3-b]indole] | 25 ± 10 | 3.9 ± 1.1 |  | 1.1 ± 0.3 | 2 |  | 6.5 | 21 |  | 
8 | Clc1cnc2[nH]c3ccc(CCc4ccccc4)cc3c2c1 [R351, 3-chloro-6-(2′-phenylethyl)-9H-pyrido[2,3-b]indole] | > 100 | > 100 |  |  | 7.6 |  |  | 23 | 66 | inactive
9 | COc1cccc(Nc2cnc3[nH]c4ccc(CCc5ccccc5)cc4c3c2)c1 [R352, N-(3-methoxyphenyl)-6-(2′-phenylethyl)-9H-pyrido[2,3-b]indol-3-amine] | 5.3 | 5.2 |  |  | 8.6 |  |  | 13 | 19 | inactive
10 | c1ccc(CCc2ccc3[nH]c4ncc(-c5ccc6c(c5)OCO6)cc4c3c2)cc1 [R354, 3-(benzo[d][1,3]dioxol-5-yl)-6-(2′-phenylethyl)-9H-pyrido[2,3-b]indole] | 27 | 22 |  | 13 | 25 |  |  | 27 |  | 
